# Target: T1, GLP-1 Receptor (Homo sapiens, UniProt P43220)
# T1 construct: host or cells: HEK293/GLP1R/CRE-LUC (HEK293/CRE-Luc stably expressing the GLP-1 receptor)
# Test: GLP-1R agonist cAMP stimulation assay (HEK293/GLP1R/CRE-LUC cells, Cisbio cAMP dynamic 2 kit);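 also: compounds tested in half-log serial dilution, cAMP detected with cAMP-d2 and anti-cAMP cryptate antibody reagents after 1 h at room temperature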
# Type: cell-based
# Settings: HEK293/CRE-Luc cell line stably expressing the GLP-1 Receptor; 1000 cells/well; 30 min at 37° C.; 0.5 mM IBMX, 0.1% BSA; read-out: GLP1R cAMP Stimulation DR: EC50
# T1 sequence (P43220 24-463, species assumed): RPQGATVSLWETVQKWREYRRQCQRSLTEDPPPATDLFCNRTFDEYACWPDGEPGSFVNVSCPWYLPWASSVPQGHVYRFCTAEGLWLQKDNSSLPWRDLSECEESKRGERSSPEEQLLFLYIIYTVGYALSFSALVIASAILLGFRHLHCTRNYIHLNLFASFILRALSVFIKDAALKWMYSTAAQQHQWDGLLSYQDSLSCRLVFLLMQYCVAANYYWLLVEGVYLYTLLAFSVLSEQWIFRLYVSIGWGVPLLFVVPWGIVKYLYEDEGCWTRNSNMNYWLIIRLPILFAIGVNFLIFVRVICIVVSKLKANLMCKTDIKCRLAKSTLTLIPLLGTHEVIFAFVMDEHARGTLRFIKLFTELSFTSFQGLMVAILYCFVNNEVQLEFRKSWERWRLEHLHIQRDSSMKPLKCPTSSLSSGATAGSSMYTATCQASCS
row,SMILES,EC50 [nM]
1,"Cc1cc(-c2noc(=O)[nH]2)cnc1CN1CCC(c2cccc3c2OC(C)(c2ccc(Cl)cc2F)O3)CC1 (stereo not drawn) [Compound 252, 3-(6-((4-(2-(4-chloro-2-fluorophenyl)-2-methylbenzo[d][1,3]dioxol-4-yl)piperidin-1-yl)methyl)-5-methylpyridin-3-yl)-1,2,4-oxadiazol-5(4H)-one]",11
2,"COCCn1c(CN2CCC(c3cccc(OCc4ccc(Cl)cc4F)n3)CC2)nnc1C(C)=CC(=O)O [Compound 235, 3-(5-((4-(6-((4-chloro-2-fluorobenzyl)oxy)pyridin-2-yl)piperidin-1-yl)methyl)-4-(2-methoxyethyl)-4H-1,2,4-triazol-3-yl)but-2-enoic acid]",10
3,"CC1(c2ccc(Cl)cc2F)Oc2cccc(N3CCN(Cc4ncc(/C=C/C(=O)O)n4C[C@@H]4CCO4)CC3)c2O1 (stereo partly drawn) [Compound 179, (E)-3-(2-((4-(2-(4-chloro-2-fluorophenyl)-2-methylbenzo[d][1,3]dioxol-4-yl)piperazin-1-yl)methyl)-1-(((S)-oxetan-2-yl)methyl)-1H-imidazol-5-yl)acrylic acid]",0.036
4,"CC1(c2ccc(Cl)cc2F)Oc2cccc(C3CCN(Cc4ncc(/C=C/C(=O)O)n4Cc4ccno4)CC3)c2O1 (stereo not drawn) [Compound 181, (E)-3-(2-((4-(2-(4-chloro-2-fluorophenyl)-2-methylbenzo[d][1,3]dioxol-4-yl)piperidin-1-yl)methyl)-1-(isoxazol-5-ylmethyl)-1H-imidazol-5-yl)acrylic acid]",4.1
5,"C/C(=C\c1cnc(CN2CCC(c3cccc4c3O[C@H](c3ccc(Cl)cc3)O4)CC2)n1C[C@@H]1CCO1)C(=O)O [Compound 133b, (E)-3-(2-((4-((R)-2-(4-chlorophenyl)benzo[d][1,3]dioxol-4-yl)piperidin-1-yl)methyl)-1-(((S)-oxetan-2-yl)methyl)-1H-imidazol-5-yl)-2-methylacrylic acid]",48
6,"COc1nc(CCC(=O)O)ccc1CN1CCC(c2cccc(OCc3ccc(Cl)cc3F)n2)CC1 [Compound 124, 3-(5-((4-(6-((4-Chloro-2-fluorobenzyl)oxy)pyridin-2-yl)piperidin-1-yl)methyl)-6-methoxypyridin-2-yl)propanoic acid]",> 1000
7,"COCCn1c(/C=C(\C)C(=O)O)nnc1CN1CCC(c2cccc(OCc3ccc(Cl)cc3F)n2)CC1 [Compound 224, (E)-3-(5-((4-(6-((4-chloro-2-fluorobenzyl)oxy)pyridin-2-yl)piperidin-1-yl)methyl)-4-(2-methoxyethyl)-4H-1,2,4-triazol-3-yl)-2-methylacrylic acid]",2.1
8,"Cc1cc(/C=C/C(=O)O)cnc1CN1CCC(c2cccc(OCc3ccc(Cl)cc3F)n2)CC1 [Compound 120, (E)-3-(6-((4-(6-((4-chloro-2-fluorobenzyl)oxy)pyridin-2-yl)piperidin-1-yl)methyl)-5-methylpyridin-3-yl)acrylic acid]",99
9,"CC1(c2ccc(Cl)cc2F)Oc2cccc(C3CCN(Cc4ncc(/C=C/C(=O)O)n4Cc4cccc(Cl)c4)CC3)c2O1 (stereo not drawn) [Compound 150, (E)-3-(2-((4-(2-(4-chloro-2-fluorophenyl)-2-methylbenzo[d][1,3]dioxol-4-yl)piperidin-1-yl)methyl)-1-(3-chlorobenzyl)-1H-imidazol-5-yl)acrylic acid]",0.054
10,"Cn1c(/C=C\C(=O)O)cnc1CN1CCC(c2cccc(OCc3ccc(Cl)cc3F)n2)CC1 [Compound 109, (Z)-3-(2-((4-(6-((4-chloro-2-fluorobenzyl)oxy)pyridin-2-yl)piperidin-1-yl)methyl)-1-methyl-1H-imidazol-5-yl)acrylic acid]",86.4
11,"COCCn1c(CCC(=O)O)cnc1CN1CCC(c2cccc3c2OC(C)(c2ccc(Cl)cc2F)O3)CC1 (stereo not drawn) [Compound 237, 3-(2-((4-(2-(4-chloro-2-fluorophenyl)-2-methylbenzo[d][1,3]dioxol-4-yl)piperidin-1-yl)methyl)-1-(2-methoxyethyl)-1H-imidazol-5-yl)propanoic acid]",0.29
12,"C[C@H](c1ccccc1)n1c(/C=C/C(=O)O)cnc1CN1CCC(c2cccc3c2OC(C)(c2ccc(Cl)cc2F)O3)CC1 (stereo partly drawn) [Compound 153, (E)-3-(2-((4-(2-(4-chloro-2-fluorophenyl)-2-methylbenzo[d][1,3]dioxol-4-yl)piperidin-1-yl)methyl)-1-((R)-1-phenylethyl)-1H-imidazol-5-yl)acrylic acid]",18
13,"Cn1c(C(=O)O)cnc1CN1CCC(c2cccc(OCc3ccc(Cl)cc3F)n2)CC1 [Compound 101, 2-((4-(6-((4-chloro-2-fluorobenzyl)oxy)pyridin-2-yl)piperidin-1-yl)methyl)-1-methyl-1H-imidazole-5-carboxylic acid]",227
14,"C/C(=C\c1nnc(CN2CCC(c3cccc(OCc4ccc(Cl)cc4F)n3)CC2)n1CCS(C)(=O)=O)C(=O)O [Compound 227, (E)-3-(5-((4-(6-((4-chloro-2-fluorobenzyl)oxy)pyridin-2-yl)piperidin-1-yl)methyl)-4-(2-(methylsulfonyl)ethyl)-4H-1,2,4-triazol-3-yl)-2-methylacrylic acid]",1.7
15,"CCc1nocc1Cn1c(/C=C/C(=O)O)cnc1CN1CCC(c2cccc3c2OC(C)(c2ccc(Cl)cc2F)O3)CC1 (stereo not drawn) [Compound 203, (E)-3-(2-((4-(2-(4-chloro-2-fluorophenyl)-2-methylbenzo[d][1,3]dioxol-4-yl)piperidin-1-yl)methyl)-1-((3-ethylisoxazol-4-yl)methyl)-1H-imidazol-5-yl)acrylic acid]",0.058
16,"CC1(c2ccc(Cl)cc2F)Oc2cccc(C3CCN(Cc4ncc(/C=C/C(=O)O)n4CC4COC4)CC3)c2O1 (stereo not drawn) [Compound 194, (E)-3-(2-((4-(2-(4-chloro-2-fluorophenyl)-2-methylbenzo[d][1,3]dioxol-4-yl)piperidin-1-yl)methyl)-1-(oxetan-3-ylmethyl)-1H-imidazol-5-yl)acrylic acid]",0.064
17,"C[C@]1(c2ccc(Cl)cn2)Oc2cccc(C3CCN(Cc4ncc(-c5nnc(C(F)(F)F)[nH]5)cc4CC4(C#N)CC4)CC3)c2O1 [Compound 277, 1-{[2-({4-[(2S)-2-(5-chloropyridin-2-yl)-2-methyl-2H-1,3-benzodioxol-4-yl]piperidin-1-yl}methyl)-5-[5-(trifluoromethyl)-4H-1,2,4-triazol-3-yl]pyridin-3-yl]methyl}cyclopropane-1-carbonitrile]",0.023
18,"Cc1cc(-c2nnc(C(F)(F)F)[nH]2)cnc1CN1CCC(c2cccc3c2OC(C)(c2ccc(F)cc2)O3)CC1 (stereo not drawn) [Compound 263, 2-({4-[2-(4-fluorophenyl)-2-methyl-2H-1,3-benzodioxol-4-yl]piperidin-1-yl}methyl)-3-methyl-5-[5-(trifluoromethyl)-4H-1,2,4-triazol-3-yl]pyridine]",6.8
19,"C[C@@]1(c2ccc(Cl)cc2F)Oc2cccc(C3CCN(Cc4ncc(/C=C/C(=O)O)n4C[C@@H]4CCO4)CC3)c2O1 [Compound 135b, (E)-3-(2-((4-((R)-2-(4-chloro-2-fluorophenyl)-2-methylbenzo[d][1,3]dioxol-4-yl)piperidin-1-yl)methyl)-1-(((S)-oxetan-2-yl)methyl)-1H-imidazol-5-yl)acrylic acid]",15
20,"Cc1ncsc1Cn1c(/C=C/C(=O)O)cnc1CN1CCC(c2cccc3c2OC(C)(c2ccc(Cl)cc2F)O3)CC1 (stereo not drawn) [Compound 189, (E)-3-(2-((4-(2-(4-chloro-2-fluorophenyl)-2-methylbenzo[d][1,3]dioxol-4-yl)piperidin-1-yl)methyl)-1-((4-methylthiazol-5-yl)methyl)-1H-imidazol-5-yl)acrylic acid]",0.022

# Other lines, results leading:
row,EC50 [nM],SMILES
1,1.4,"C/C(=C\c1cnc(CN2CCC(c3cccc(OCc4ccc(Cl)cc4F)n3)CC2)n1C[C@@H]1CCO1)C(=O)O [Compound 218a, (S,E)-3-(2-((4-(6-((4-chloro-2-fluorobenzyl)oxy)pyridin-2-yl)piperidin-1-yl)methyl)-1-(oxetan-2-ylmethyl)-1H-imidazol-5-yl)-2-methylacrylic acid]"
2,3.7,"O=c1[nH]c(-c2cnc(CN3CCC(c4cccc(OCc5ccc(Cl)cc5F)n4)CC3)n2C[C@@H]2CCO2)no1 [Compound 249a, (S)-3-(2-((4-(6-((4-chloro-2-fluorobenzyl)oxy)pyridin-2-yl)piperidin-1-yl)methyl)-1-(oxetan-2-ylmethyl)-1H-imidazol-5-yl)-1,2,4-oxadiazol-5(4H)-one]"
3,10,"CC1(C)C[C@@H](Cn2c(/C=C/C(=O)O)cnc2CN2CCC(c3cccc4c3OC(C)(c3ccc(Cl)cc3F)O4)CC2)CO1 (single isomer, unassigned) [Compound 171a]"
4,0.0023,"CCn1cncc1Cn1c(/C=C(\C)C(=O)O)cnc1CN1CCC(c2cccc3c2O[C@@](C)(c2ccc(Cl)cc2F)O3)CC1 [Compound 138a, (S,E)-3-(2-((4-(2-(4-chloro-2-fluorophenyl)-2-methylbenzo[d][1,3]dioxol-4-yl)piperidin-1-yl)methyl)-1-((1-ethyl-1H-imidazol-5-yl)methyl)-1H-imidazol-5-yl)-2-methylacrylic acid]"
5,0.16,"C[C@@H](Cn1c(/C=C/C(=O)O)cnc1CN1CCC(c2cccc3c2O[C@@](C)(c2ccc(Cl)cc2F)O3)CC1)OC(F)F [Compound 169a, (E)-3-(2-((4-((S)-2-(4-chloro-2-fluorophenyl)-2-methylbenzo[d][1,3]dioxol-4-yl)piperidin-1-yl)methyl)-1-((S)-2-(difluoromethoxy)propyl)-1H-imidazol-5-yl)acrylic acid]"
6,55,"O=C(O)/C(F)=C/c1cnc(CN2CCC(c3cccc(OCc4ccc(Cl)cc4F)n3)CC2)n1C[C@@H]1CCO1 [Compound 215a, (S,Z)-3-(2-((4-(6-((4-chloro-2-fluorobenzyl)oxy)pyridin-2-yl)piperidin-1-yl)methyl)-1-(oxetan-2-ylmethyl)-1H-imidazol-5-yl)-2-fluoroacrylic acid]"
7,0.026,"CCn1cncc1Cn1c(/C=C/C(=O)O)nnc1CN1CCC(c2cccc3c2OC[C@@H](c2ccc(Cl)cc2)O3)CC1 [Compound 234a, (R,E)-3-(5-((4-(2-(4-chlorophenyl)-2,3-dihydrobenzo[b][1,4]dioxin-5-yl)piperidin-1-yl)methyl)-4-((1-ethyl-1H-imidazol-5-yl)methyl)-4H-1,2,4-triazol-3-yl)acrylic acid]"
